Laboratory results as given in patent US4198506A, “2-Carboxyalkyl-2,3-dihydro-6-mercapto-s-triazolo[4,3-b]-pyridazin-3-ones” (Bristol-Myers Company, priority 1979, dated 1980).
Converted amounts (≈) assume the structure as drawn. “And” between values parts separate entries of the source, which are not always exact repeats. Equal entries are not always repeated. Where two headings read alike, the source gives them in different places.

Experiments:
[1] = system: D. pneumoniae; assay: In vitro activity (geometric mean MIC, serial dilution); assay type: cell-based; conditions: Streptococcus pneumoniae; 9 strains; Mueller-Hinton agar, inoculum 10^4 dilution; MIC cutoff 200 mcg./ml.
[2] = system: E. coli Juhl; assay: In vivo activity (Mice, sc); conditions: several determinations listed
From the text: |In vivo Activity of BB-[…] and Related Compounds (Mice, sc) | (PD50 (mgm./kg.)

[3] = system: Shig. dysenteriae; assay: In vitro antibacterial activity (Steers' agar dilution MIC); assay type: cell-based; conditions: Shigella dysenteriae
[4] = system: Enterobacter (sensitive); assay: In vitro activity (geometric mean MIC, serial dilution); assay type: cell-based; conditions: read-out: Geometric Mean MIC
[5] = system: rabbits; assay: Preliminary nephrotoxicity study; assay type: in vivo; conditions: two rabbits, 100 mg./kg. intravenously
Experimental: A preliminary nephrotoxicity study was carried out by administration of the test compound to a group of two rabbits at 100 mg./kg. intravenously.

[6] = system: Proteus (indole +); assay: In vitro activity (geometric mean MIC, serial dilution); assay type: cell-based; conditions: read-out: Geometric Mean MIC
[7] = system: E. coli; assay: In vitro antibacterial activity (Steers' agar dilution MIC); assay type: cell-based; conditions: Escherichia coli
From the text: (§1) In vitro Antibacterial Activity of BB-S493 Compared with
(§2) BB-S479 and Cefamandole (Determined by Steers' Agar Dilu-
(§3) tion Method on Mueller-Hinton Agar Plate)
(§4) In vitro antibacterial activity of BB-S 525 compared with
(§5) BB-S 479 and cefamandole (determined by Steers' agar dilution
(§6) method on Mueller-Hinton agar plate)

[8] = system: Kl. pneumoniae; assay: as above; assay type: cell-based; conditions: Klebsiella pneumoniae
From the text: as §1, §2, §3, §4, §5, §6

[9] = system: Shig. sonnei; assay: as above; assay type: cell-based; conditions: Shigella sonnei
From the text: as §1, §2, §3, §4, §5, §6

[10] = system: Sal. typhosa; assay: as above; assay type: cell-based
From the text: as §1, §2, §3, §4, §5, §6

[11] = table 2 (BB-S493), Shig dysenteriae
[12] = table 4 (BB-S 525), Shig. dysenteriae
[13] = ATCC8739, table 2 (BB-S493), E. coli ATCC 8739, read-out: MIC
[14] = ATCC8739, table 4 (BB-S 525), E. coli ATCC 8739
[15] = table 2 (BB-S493), E. coli A9660, read-out: MIC
[16] = table 2 (BB-S493), E. coli A15147, read-out: MIC
[17] = table 2 (BB-S493), E. coli A15810, read-out: MIC
[18] = table 2 (BB-S493), E. coli BX-1373, read-out: MIC
[19] = table 2 (BB-S493), E. coli Juhl A15119, read-out: MIC
[20] = table 2 (BB-S493), E. coli NIHJ, read-out: MIC
[21] = table 4 (BB-S 525), E. coli BX-1373, read-out: MIC
[22] = table 4 (BB-S 525), E. coli Juhl, read-out: MIC
[23] = table 4 (BB-S 525), E. coli NIHJ, read-out: MIC
[24] = table 4 (BB-S 525), E. coli, strain not given, 1st line, read-out: MIC
[25] = table 4 (BB-S 525), E. coli, strain not given, 2nd line, read-out: MIC
[26] = table 4 (BB-S 525), E. coli, strain not given, 3rd line, read-out: MIC
[27] = table 2 (BB-S493), Kl. pneumoniae A9678
[28] = table 2 (BB-S493), Kl. pneumoniae A9867
[29] = table 2 (BB-S493), Kl. pneumoniae A9977
[30] = table 2 (BB-S493), Kl. pneumoniae A15130
[31] = table 4 (BB-S 525), Kl. pneumoniae, 1st line
[32] = table 4 (BB-S 525), Kl. pneumoniae, 2nd line
[33] = table 4 (BB-S 525), Kl. pneumoniae, 3rd line
[34] = table 4 (BB-S 525), Kl. pnuemoniae, 4th line
[35] = table 2 (BB-S493), Shig. sonnei A9516
[36] = table 4 (BB-S 525), Shig. sonnei
[37] = table 2 (BB-S493), Sal. typhosa A9498
[38] = table 4 (BB-S 525), Sal. typhosa

| Structure (SMILES) | MIC [1] | MIC [3, 11] | MIC [3, 12] | MIC [7, 13] | MIC [7, 14] | MIC [7, 15] | MIC [7, 16] | MIC [7, 17] | MIC [7, 18] | MIC [7, 19] | MIC [7, 20] | MIC [7, 21] | MIC [7, 22] | MIC [7, 23] | MIC [7, 24] | MIC [7, 25] | MIC [7, 26] | MIC [8, 27] | MIC [8, 28] | MIC [8, 29] | other results |
| --- | --- | --- | --- | --- | --- | --- | --- | --- | --- | --- | --- | --- | --- | --- | --- | --- | --- | --- | --- | --- | --- |
| CNCc1ccccc1CC(=O)N[C@@H]1C(=O)N2C(C(=O)O)=C(CSc3ccc4nn(CC(=O)O)c(=O)n4n3)CS[C@H]12 [BB-S479, 7-[o-(Methylaminomethyl)phenylacetamido]-3-(2-carboxymethyl-2,3-dihydro-s-triazolo[4,3-b]pyridazin-3-on-6-ylthiomethyl)-3-cephem-4-carboxylic Acid] | 0.04 µg/mL (≈ 0.0667 µM) | 0.025 µg/mL (≈ 0.0417 µM) | 0.1 µg/mL (≈ 0.167 µM) | 0.05 µg/mL (≈ 0.0834 µM) | 3.1 µg/mL (≈ 5.17 µM) | 0.05 µg/mL (≈ 0.0834 µM) | 3.1 µg/mL (≈ 5.17 µM) | 0.1 µg/mL (≈ 0.167 µM) | 0.2 µg/mL (≈ 0.334 µM) | 0.1 µg/mL (≈ 0.167 µM) | 0.05 µg/mL (≈ 0.0834 µM) | 0.2 µg/mL (≈ 0.334 µM) | 0.2 µg/mL (≈ 0.334 µM) | 0.1 µg/mL (≈ 0.167 µM) | 0.1 µg/mL (≈ 0.167 µM) | 0.05 µg/mL (≈ 0.0834 µM) | 3.1 µg/mL (≈ 5.17 µM) | 0.4 µg/mL (≈ 0.667 µM) | 0.1 µg/mL (≈ 0.167 µM) | 0.1 µg/mL (≈ 0.167 µM) | ED50 ([2]; Escherichia coli, read-out: PD50): 0.19 mg/kg; PD50 [2]: 0.15 mgm./kg. and 0.12 mgm./kg.; MIC [4]: 0.5 µg/mL (≈ 0.834 µM); nephrotoxic potential [5]: little nephrotoxic potential; MIC ([6]; 14 strains, Mueller-Hinton agar, inoculum 10^4 dilution, MIC cutoff 200 mcg./ml.): 0.2 µg/mL (≈ 0.334 µM); MIC [8, 30]: 0.1 µg/mL (≈ 0.167 µM); MIC [8, 31]: 0.8 µg/mL (≈ 1.33 µM); MIC [8, 32]: 0.1 µg/mL (≈ 0.167 µM); MIC [8, 33]: 0.2 µg/mL (≈ 0.334 µM); MIC [8, 34]: 0.2 µg/mL (≈ 0.334 µM); MIC [9, 35]: 0.025 µg/mL (≈ 0.0417 µM); MIC [9, 36]: 0.1 µg/mL (≈ 0.167 µM); MIC [10, 37]: 0.05 µg/mL (≈ 0.0834 µM); MIC [10, 38]: 0.1 µg/mL (≈ 0.167 µM) |
| Cn1nnnc1SCC1=C(C(=O)O)N2C(=O)[C@@H](NC(=O)[C@H](O)c3ccccc3)[C@H]2SC1 [Cefamandole, reference compound] | 0.2 µg/mL (≈ 0.432 µM) | 0.2 µg/mL (≈ 0.432 µM) | 0.1 µg/mL (≈ 0.216 µM) | 0.05 µg/mL (≈ 0.108 µM) | 6.3 µg/mL (≈ 13.6 µM) | 0.1 µg/mL (≈ 0.216 µM) | 3.1 µg/mL (≈ 6.7 µM) | 0.2 µg/mL (≈ 0.432 µM) | 0.4 µg/mL (≈ 0.865 µM) | 0.4 µg/mL (≈ 0.865 µM) | 0.025 µg/mL (≈ 0.0541 µM) | 0.2 µg/mL (≈ 0.432 µM) | 0.4 µg/mL (≈ 0.865 µM) | 0.1 µg/mL (≈ 0.216 µM) | 0.1 µg/mL (≈ 0.216 µM) | 0.05 µg/mL (≈ 0.108 µM) | 1.6 µg/mL (≈ 3.46 µM) | 1.6 µg/mL (≈ 3.46 µM) | 0.8 µg/mL (≈ 1.73 µM) | 0.4 µg/mL (≈ 0.865 µM) | MIC ([4]; 3 strains, Mueller-Hinton agar, inoculum 10^4 dilution, MIC cutoff 200 mcg./ml.): 1 µg/mL (≈ 2.16 µM); MIC [6]: 0.5 µg/mL (≈ 1.08 µM); MIC [8, 30]: 0.4 µg/mL (≈ 0.865 µM); MIC [8, 31]: 3.1 µg/mL (≈ 6.7 µM); MIC [8, 32]: 0.2 µg/mL (≈ 0.432 µM); MIC [8, 33]: 0.8 µg/mL (≈ 1.73 µM); MIC [8, 34]: 0.8 µg/mL (≈ 1.73 µM); MIC [9, 35]: 0.05 µg/mL (≈ 0.108 µM); MIC [9, 36]: 0.2 µg/mL (≈ 0.432 µM); MIC [10, 37]: 0.1 µg/mL (≈ 0.216 µM); MIC [10, 38]: 0.1 µg/mL (≈ 0.216 µM) |
